Assay results reported in patent US7256190B2, “Thiazole compounds useful as inhibitors of protein kinase” (Vertex Pharmaceuticals Incorporated, priority 2001, dated 2007).

What was measured:
Type in all cases: biochemical
Aurora2 = target: T1, Aurora2 (Homo sapiens, UniProt O14965); test: Aurora2 inhibition assay (coupled enzyme assay); settings: 800 μM peptide LRRASLG, 70 nM Aurora2, 30° C.
T1 sequence (O14965 1-403): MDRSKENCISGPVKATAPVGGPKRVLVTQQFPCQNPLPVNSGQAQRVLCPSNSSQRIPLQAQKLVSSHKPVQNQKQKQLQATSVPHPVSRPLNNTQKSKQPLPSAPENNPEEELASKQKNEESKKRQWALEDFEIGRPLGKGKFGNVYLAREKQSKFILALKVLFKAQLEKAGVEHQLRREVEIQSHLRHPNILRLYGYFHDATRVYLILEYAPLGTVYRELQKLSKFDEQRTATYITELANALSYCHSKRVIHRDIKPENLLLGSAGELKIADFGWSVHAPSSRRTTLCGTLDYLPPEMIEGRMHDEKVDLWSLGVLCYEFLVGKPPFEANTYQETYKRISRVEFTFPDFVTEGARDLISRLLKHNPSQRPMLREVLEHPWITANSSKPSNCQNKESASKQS
Method: Compounds are screened in the following manner for their ability to inhibit Aurora2 using a standard coupled enzyme assay (Fox et al (1998). Protein Sci 7, 2246). To an assay stock buffer solution containing 0.1M HEPES 7.5, 10 mM MgCl2, 1 mM DTT, 25 mM NaCl, 2.5 mM prosphoenolpyruvate, […], […] pyruvate kinase, […] lactate dehydrogenase, […], and 800 μM peptide (LRRASLG, American Peptide, Sunnyvale, Calif.) is added a DMSO solution of a compound of the present invention to a final concentration of 30 μM. The resulting mixture is incubated at 30° C. for 10 minutes. The reaction was initiated by the addition of 10 μL of Aurora2 stock solution to give a final concentration of 70 nM in the assay. The rates of reaction are obtained by monitoring absorbance at 340 nm over a 5 minute read time at 30° C. using a BioRad Ultramark plate reader (Hercules, Calif.). The IC50 values are determined from the rate data as a function of inhibitor concentration.
(§1) The compound numbers correspond to the compound numbers in Table 1.

GSK3-β (AA 1-420) = GSK3-β (AA 1-420) (Homo sapiens, UniProt P49841); test: GSK-3 inhibition assay (coupled enzyme system); settings: 10 μM ATP, 300 μM peptide, 60 nM GSK-3β, 30° C.
Method: Compounds were screened for their ability to inhibit GSK3-β (AA 1-420) activity using a standard coupled enzyme system (Fox et al. (1998) Protein Sci. 7, 2249). Reactions were carried out in a solution containing 100 mM HEPES (pH 7.5), 10 mM MgCl2, 25 mM NaCl, 300 μM NADH, 1 mM DTT and 1.5% DMSO. Final substrate concentrations in the assay were 10 μM ATP (Sigma Chemicals, St Louis, Mo.) and 300 μM peptide (HSSPHQS(PO3H2)EDEEE, American Peptide, Sunnyvale, Calif.). Reactions were carried out at 30° C. and 60 nM GSK-3β. Final concentrations of the components of the coupled enzyme system were 2.5 mM phosphoenolpyruvate, 300μM NADH, 30 μg/ml pyruvate kinase and 10 μg/ml lactate dehydrogenase.
An assay stock buffer solution was prepared containing all of the reagents listed above with the exception of ATP and the test compound of interest. 59 μl of the test reaction was placed in a 96 well ½-diameter plate (Corning, Corning, N.Y.) then treated with 1 μl of a 2 mM DMSO stock containing the test compound (final compound concentration 30 μM). The plate was incubated for ˜10 minutes at 30° C. then the reaction initiated by addition of 7 μl of ATP (final concentration 10 μM). Rates of reaction were obtained using a Molecular Devices Spectramax plate reader (Sunnyvale, Calif.) over a 5 minute read time at 30° C.
as §1

Syk = Syk (Homo sapiens, UniProt P43405); test: Syk inhibition assay (coupled enzyme assay); settings: 200 μM ATP, 4 μM poly Gly-Tyr peptide, 30° C.
Method: Reactions were carried out in 100 mM HEPES pH 7.5, 10 mM MgCl2, 25 mM NaCl, 1 mM DTT and 1.5% DMSO. Final substrate .concentrations in the assay were 200 μM ATP (Sigmachemical Co.) and 4 μM poly Gly-Tyr peptide (Sigma Chemical Co.). Assays were carried out at 30° C. and 200 nM Syk. Final concentrations of the components of the coupled enzyme system were 2.5 mM phosphoenolpyruvate, 300 μM NADH, 30 μg/ml pyruvate kinase and 10 μg/ml lactate dehydrogenase.
An assay stock buffer solution was prepared containing all of the reagents listed above, with the exception of Syk, DTT and the test compound of interest. 56 μl of the test reaction was placed in a 96 well plate followed by the addition of 1 μl of 2 mM DMSO stock containing the test compound (final compound concentration 30 μM). […] Rates of reaction were obtained using a BioRad Ultramark plate reader (Hercules, Calif.) over a 5 minute read time at 30° C.
as §1

Sequence of GSK3-β (AA 1-420) (P49841 whole entry, the tested form may be a part): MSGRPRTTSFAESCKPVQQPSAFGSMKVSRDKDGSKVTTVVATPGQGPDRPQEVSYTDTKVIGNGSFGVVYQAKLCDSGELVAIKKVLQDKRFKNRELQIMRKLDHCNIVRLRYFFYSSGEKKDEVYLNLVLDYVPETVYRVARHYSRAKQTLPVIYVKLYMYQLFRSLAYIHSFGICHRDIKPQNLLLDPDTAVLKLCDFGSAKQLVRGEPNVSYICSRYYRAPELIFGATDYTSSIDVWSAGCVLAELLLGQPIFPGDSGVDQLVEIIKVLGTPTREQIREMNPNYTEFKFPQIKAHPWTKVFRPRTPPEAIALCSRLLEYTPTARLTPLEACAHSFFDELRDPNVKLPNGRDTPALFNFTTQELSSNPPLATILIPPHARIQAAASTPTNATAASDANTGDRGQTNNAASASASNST

IC50 (Aurora2) [nM]	Ki (GSK3-β (AA 1-420)) [nM]	IC50 (Syk) [nM]	SMILES
500 to 2000	< 100	500 to 2000	c1ccc(Oc2cccc(Nc3nccc(-c4nccs4)n3)c2)cc1 [Compound I-4]
500 to 2000	< 100	500 to 2000	Nc1cccc(COc2cccc(Nc3nccc(-c4nccs4)n3)c2)c1 [Compound I-14]
< 500	> 1000	500 to 2000	O=[N+]([O-])c1cccc(Nc2nccc(-c3nccs3)n2)c1 [Compound I-16]
< 500	< 100	< 500	c1cncc(COc2cccc(Nc3nccc(-c4nccs4)n3)c2)c1 [Compound I-23]
500 to 2000	< 100	< 500	COc1cccc(Nc2nccc(-c3nccs3)n2)c1 [Compound I-25]
> 2000	< 100	> 2000	O=[N+]([O-])c1ccccc1COc1cccc(Nc2nccc(-c3nccs3)n2)c1 [Compound I-35]
< 500	< 100	< 500	Nc1ccccc1COc1cccc(Nc2nccc(-c3nccs3)n2)c1 [Compound I-38]
500 to 2000	–	500 to 2000	c1cc(Nc2nccc(-c3nccs3)n2)cc(Oc2ccncc2)c1 [Compound I-56]
> 2000	–	> 2000	O=[N+]([O-])c1cccc(Oc2cccc(Nc3nccc(-c4nccs4)n3)c2)c1 [Compound I-59]
500 to 2000	–	< 500	Nc1cccc(Oc2cccc(Nc3nccc(-c4nccs4)n3)c2)c1 [Compound I-62]
500 to 2000	< 100	> 2000	Clc1ccccc1COc1cccc(Nc2nccc(-c3nccs3)n2)c1 [Compound I-88]
< 500	< 100	< 500	Fc1cccc(F)c1COc1cccc(Nc2nccc(-c3nccs3)n2)c1 [Compound I-94]
> 2000	< 100	> 2000	FC(F)(F)c1cccc(COc2cccc(Nc3nccc(-c4nccs4)n3)c2)c1 [Compound I-106]
> 2000	< 100	> 2000	Clc1cccc(COc2cccc(Nc3nccc(-c4nccs4)n3)c2)c1Cl [Compound I-112]

Continued, compound first:

SMILES	IC50 (Aurora2) [nM]	Ki (GSK3-β (AA 1-420)) [nM]	IC50 (Syk) [nM]
Clc1ccc(COc2cccc(Nc3nccc(-c4nccs4)n3)c2)cc1Cl [Compound I-2]	> 2000	> 1000	> 2000
CS(=O)(=O)c1ccc(COc2cccc(Nc3nccc(-c4nccs4)n3)c2)cc1 [Compound I-5]	> 2000	< 100	< 500
c1cc(Nc2nccc(-c3nccs3)n2)cc(OCc2ccncc2)c1 [Compound I-8]	< 500	< 100	> 2000
Oc1cccc(Nc2nccc(-c3nccs3)n2)c1 [Compound I-11]	< 500	< 100	< 500
c1cc(Nc2nccc(-c3nccs3)n2)cc(OCc2ccc3c(c2)OCO3)c1 [Compound I-17]	< 500	< 100	< 500
Fc1cccc(Nc2nccc(-c3nccs3)n2)c1 [Compound I-19]	500 to 2000	< 100	500 to 2000
Clc1cccc(Nc2nccc(-c3nccs3)n2)c1 [Compound I-22]	< 500	< 100	< 500
c1cc(Nc2nccc(-c3nccs3)n2)cc(OCCn2cccc2)c1 [Compound I-29]	< 500	< 100	< 500
Ic1cccc(Nc2nccc(-c3nccs3)n2)c1 [Compound I-31]	< 500	< 100	< 500
Brc1cccc(Nc2nccc(-c3nccs3)n2)c1 [Compound I-34]	< 500	< 100	< 500
FC(F)(F)c1cccc(Nc2nccc(-c3nccs3)n2)c1 [Compound I-37]	500 to 2000	< 100	< 500
Fc1ccc(Nc2nccc(-c3nccs3)n2)cc1 [Compound I-43]	> 2000	< 100	> 2000
Clc1ccc(Nc2nccc(-c3nccs3)n2)cc1 [Compound I-46]	> 2000	< 100	> 2000
Fc1ccc(Nc2nccc(-c3nccs3)n2)cc1F [Compound I-49]	500 to 2000	< 100	> 2000
c1ccc2cc(Nc3nccc(-c4nccs4)n3)ccc2c1 [Compound I-52]	> 2000	< 100	> 2000
NS(=O)(=O)c1ccc(Nc2nccc(-c3nccs3)n2)cc1 [Compound I-55]	< 500	< 100	< 500
Fc1cc(Nc2nccc(-c3nccs3)n2)cc(F)c1F [Compound I-58]	> 2000	< 100	> 2000
Clc1cccc(Cl)c1Nc1nccc(-c2nccs2)n1 [Compound I-61]	> 2000	> 1000	> 2000
Fc1cccc(F)c1Nc1nccc(-c2nccs2)n1 [Compound I-64]	> 2000	> 1000	> 2000
Cc1ccc(Nc2nccc(-c3nccs3)n2)cc1 [Compound I-67]	< 500	100 to 1000	< 500
Cc1cc(C)cc(Nc2nccc(-c3nccs3)n2)c1 [Compound I-73]	< 500	< 100	< 500
c1cc(Nc2nccc(-c3nccs3)n2)cc(OCC2CCCCC2)c1 [Compound I-76]	> 2000	< 100	> 2000
COC(=O)c1ccc(COc2cccc(Nc3nccc(-c4nccs4)n3)c2)cc1 [Compound I-82]	> 2000	< 100	> 2000
Fc1ccc(COc2cccc(Nc3nccc(-c4nccs4)n3)c2)cc1 [Compound I-109]	> 2000	< 100	> 2000
